# Test system: IL-23 induced STAT3 in HEK-Blue™ IL-23 cells
# Test: IL-23 induced STAT3 QUANTI-Blue reporter assay in HEK-Blue IL-23 cells
# Type: cell-based
# Conditions: HEK-Blue IL-23, HEK-Blue IL-23 cells, IL-23 0.1 ng/mL, SEAP levels; class symbols; read-out: IL23 reporter assay (IC50 nM)
# Outline: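 HEK-Blue IL-23 cells, 5000/well, preincubated with compound 1 h at 37 °C, then stimulated overnight with IL-23 at 0.1 ng/mL final. Supernatant mixed with QUANTI-Blue for 2 h at 37 °C and secreted SEAP read out.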
row,SMILES,IC50
1,CNc1cc(Nc2cccn([C@H]3CCCOC3)c2=O)nn2c(C(=O)N[C@@H]3C[C@H]4CCO[C@H]43)cnc12 [Compound 65],< 10 nM
2,CNc1cc(Nc2cccn(C3CCOCC3)c2=O)nn2c(C(=O)N[C@@H]3C[C@H]4CCO[C@H]43)cnc12 [Compound 66],< 10 nM
3,[2H]C([2H])([2H])Nc1cc(Nc2cccn([C@H]3CC[C@H](OC([2H])([2H])[2H])CC3)c2=O)nn2c(C(=O)N[C@@H]3C[C@@H]3F)cnc12 [Compound 69],< 10 nM
4,CNc1cc(Nc2cccn([C@H]3CC[C@@H](OC)CC3)c2=O)nn2c(C(=O)N[C@@H]3C[C@@H]3F)cnc12 [Compound 70],10 to 100 nM
5,[2H]C([2H])([2H])Nc1cc(Nc2cccn([C@H]3CC[C@@H](OC([2H])([2H])[2H])CC3)c2=O)nn2c(C(=O)N[C@@H]3C[C@@H]3F)cnc12 [Compound 72],< 10 nM
6,CNc1cc(Nc2cccn(C3CCC4(CC3)COC4)c2=O)nn2c(C(=O)N[C@@H]3C[C@@H]3F)cnc12 [Compound 73],< 10 nM
7,CNc1cc(Nc2cccn(C3C[C@H]4CC[C@@H](C3)O4)c2=O)nc2c(C(=O)N[C@@H]3C[C@H]4CCO[C@H]43)cnn12 (stereo partly drawn) [Compound 76],10 to 100 nM
8,[2H]C([2H])([2H])Nc1cc(Nc2cccn(C3C[C@H]4CC[C@@H](C3)O4)c2=O)nn2c(C(=O)N[C@@H]3C[C@@H]3F)cnc12 (stereo partly drawn) [Compound 80],10 to 100 nM
9,CNc1cc(Nc2cccn(C3C[C@H]4CC[C@@H](C3)O4)c2=O)nc2c(C(=O)N[C@@H]3C[C@@H]3F)cnn12 (stereo partly drawn) [Compound 81],10 to 100 nM
10,CNc1cc(Nc2cccn([C@H]3C[C@H](OC)C3)c2=O)nn2c(C(=O)N[C@@H]3C[C@H]4CCO[C@H]43)cnc12 [Compound 82],< 10 nM
11,[2H]C([2H])([2H])O[C@H]1C[C@H](n2cccc(Nc3cc(NC)c4ncc(C(=O)N[C@@H]5C[C@H]6CCO[C@H]65)n4n3)c2=O)C1 [Compound 83],10 to 100 nM
12,[2H]C([2H])([2H])Nc1cc(Nc2cccn([C@H]3C[C@H](OC([2H])([2H])[2H])C3)c2=O)nn2c(C(=O)N[C@@H]3C[C@H]4CCO[C@H]43)cnc12 [Compound 84],10 to 100 nM
13,CNc1cc(Nc2cccn([C@H]3C[C@@H](OC)C3)c2=O)nn2c(C(=O)N[C@@H]3C[C@H]4CCO[C@H]43)cnc12 [Compound 85],10 to 100 nM
14,[2H]C([2H])([2H])O[C@H]1C[C@@H](n2cccc(Nc3cc(NC)c4ncc(C(=O)N[C@@H]5C[C@H]6CCO[C@H]65)n4n3)c2=O)C1 [Compound 86],10 to 100 nM
15,[2H]C([2H])([2H])Nc1cc(Nc2cccn([C@H]3C[C@@H](OC([2H])([2H])[2H])C3)c2=O)nn2c(C(=O)N[C@@H]3C[C@H]4CCO[C@H]43)cnc12 [Compound 87],10 to 100 nM
16,[2H]C([2H])([2H])Nc1cc(Nc2cccn([C@H]3C[C@H](OC(F)(F)F)C3)c2=O)nn2c(C(=O)N[C@@H]3C[C@H]4CCO[C@H]43)cnc12 [Compound 89],10 to 100 nM
17,CNc1cc(Nc2cccn([C@H]3C[C@H](F)C3)c2=O)nn2c(C(=O)N[C@@H]3C[C@H]4CCO[C@H]43)cnc12 [Compound 90],10 to 100 nM
18,CNc1cc(Nc2cccn([C@H]3C[C@H](OC)C3)c2=O)nn2c(C(=O)N[C@@H]3C[C@@H]3F)cnc12 [Compound 99],10 to 100 nM
19,[2H]C([2H])([2H])Nc1cc(Nc2cccn([C@H]3C[C@H](OC([2H])([2H])[2H])C3)c2=O)nc2c(C(=O)N[C@@H]3C[C@@H]3F)cnn12 [Compound 100],10 to 100 nM
20,[2H]C([2H])([2H])Nc1cc(Nc2cccn([C@@H]3C[C@H]4CCO[C@H]43)c2=O)nn2c(C(=O)N[C@@H]3C[C@@H]3F)cnc12 [Compound 106],< 10 nM
21,CNc1cc(Nc2cccn(CC3CCCO3)c2=O)nn2c(C(=O)N[C@@H]3C[C@@H]3F)cnc12 (stereo partly drawn) [Compound 107],10 to 100 nM

# Target: T1, N-terminal His-tagged TYK2 pseudokinase domain (Homo sapiens, UniProt P29597)
# T1 construct: the N-terminal His-tagged TYK2 pseudokinase domain; His (N); purchased Pharmaron
# Test: TYK2 JH2 domain SPA binding assay
# Conditions: displacement of H3 probe (20 nM), 30 min room temperature; class symbols
# Protocol: TYK2 JH2 Domain Binding Assay
# After incubating at room temperature for 30 min, the inhibition was calculated by the displacement of [3H] 3 binding as determined by scintillation counting. Dose-response curves were generated to determine the concentration required to inhibit H3 probe binding by […] (IC50).
# T1 sequence (P29597 589-875 limits assumed): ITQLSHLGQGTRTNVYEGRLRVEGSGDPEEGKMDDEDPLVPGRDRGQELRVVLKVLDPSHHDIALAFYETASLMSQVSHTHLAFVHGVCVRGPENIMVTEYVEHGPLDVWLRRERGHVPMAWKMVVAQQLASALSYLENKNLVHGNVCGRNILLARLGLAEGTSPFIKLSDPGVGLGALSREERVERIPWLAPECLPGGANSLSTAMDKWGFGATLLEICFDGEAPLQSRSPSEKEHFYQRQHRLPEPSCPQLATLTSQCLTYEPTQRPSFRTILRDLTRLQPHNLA
row,IC50,SMILES
1,10 to 100 nM,CNc1cc(Nc2cccn([C@H]3CCCOC3)c2=O)nn2c(C(=O)N[C@@H]3C[C@H]4CCO[C@H]43)cnc12 [Compound 65]
2,10 to 100 nM,CNc1cc(Nc2cccn(C3CCOCC3)c2=O)nn2c(C(=O)N[C@@H]3C[C@H]4CCO[C@H]43)cnc12 [Compound 66]
3,10 to 100 nM,[2H]C([2H])([2H])Nc1cc(Nc2cccn([C@H]3CC[C@H](OC([2H])([2H])[2H])CC3)c2=O)nn2c(C(=O)N[C@@H]3C[C@@H]3F)cnc12 [Compound 69]
4,10 to 100 nM,CNc1cc(Nc2cccn([C@H]3CC[C@@H](OC)CC3)c2=O)nn2c(C(=O)N[C@@H]3C[C@@H]3F)cnc12 [Compound 70]
5,10 to 100 nM,[2H]C([2H])([2H])Nc1cc(Nc2cccn([C@H]3CC[C@@H](OC([2H])([2H])[2H])CC3)c2=O)nn2c(C(=O)N[C@@H]3C[C@@H]3F)cnc12 [Compound 72]
6,10 to 100 nM,CNc1cc(Nc2cccn(C3CCC4(CC3)COC4)c2=O)nn2c(C(=O)N[C@@H]3C[C@@H]3F)cnc12 [Compound 73]
7,10 to 100 nM,CNc1cc(Nc2cccn(C3C[C@H]4CC[C@@H](C3)O4)c2=O)nc2c(C(=O)N[C@@H]3C[C@H]4CCO[C@H]43)cnn12 (stereo partly drawn) [Compound 76]
8,10 to 100 nM,[2H]C([2H])([2H])Nc1cc(Nc2cccn(C3C[C@H]4CC[C@@H](C3)O4)c2=O)nn2c(C(=O)N[C@@H]3C[C@@H]3F)cnc12 (stereo partly drawn) [Compound 80]
9,10 to 100 nM,CNc1cc(Nc2cccn(C3C[C@H]4CC[C@@H](C3)O4)c2=O)nc2c(C(=O)N[C@@H]3C[C@@H]3F)cnn12 (stereo partly drawn) [Compound 81]
10,10 to 100 nM,CNc1cc(Nc2cccn([C@H]3C[C@H](OC)C3)c2=O)nn2c(C(=O)N[C@@H]3C[C@H]4CCO[C@H]43)cnc12 [Compound 82]
11,10 to 100 nM,[2H]C([2H])([2H])O[C@H]1C[C@H](n2cccc(Nc3cc(NC)c4ncc(C(=O)N[C@@H]5C[C@H]6CCO[C@H]65)n4n3)c2=O)C1 [Compound 83]
12,10 to 100 nM,[2H]C([2H])([2H])Nc1cc(Nc2cccn([C@H]3C[C@H](OC([2H])([2H])[2H])C3)c2=O)nn2c(C(=O)N[C@@H]3C[C@H]4CCO[C@H]43)cnc12 [Compound 84]
13,10 to 100 nM,CNc1cc(Nc2cccn([C@H]3C[C@@H](OC)C3)c2=O)nn2c(C(=O)N[C@@H]3C[C@H]4CCO[C@H]43)cnc12 [Compound 85]
14,10 to 100 nM,[2H]C([2H])([2H])O[C@H]1C[C@@H](n2cccc(Nc3cc(NC)c4ncc(C(=O)N[C@@H]5C[C@H]6CCO[C@H]65)n4n3)c2=O)C1 [Compound 86]
15,10 to 100 nM,[2H]C([2H])([2H])Nc1cc(Nc2cccn([C@H]3C[C@@H](OC([2H])([2H])[2H])C3)c2=O)nn2c(C(=O)N[C@@H]3C[C@H]4CCO[C@H]43)cnc12 [Compound 87]
16,10 to 100 nM,[2H]C([2H])([2H])Nc1cc(Nc2cccn([C@H]3C[C@H](OC(F)(F)F)C3)c2=O)nn2c(C(=O)N[C@@H]3C[C@H]4CCO[C@H]43)cnc12 [Compound 89]
17,10 to 100 nM,CNc1cc(Nc2cccn([C@H]3C[C@H](F)C3)c2=O)nn2c(C(=O)N[C@@H]3C[C@H]4CCO[C@H]43)cnc12 [Compound 90]
18,10 to 100 nM,CNc1cc(Nc2cccn([C@H]3C[C@H](OC)C3)c2=O)nn2c(C(=O)N[C@@H]3C[C@@H]3F)cnc12 [Compound 99]
19,10 to 100 nM,[2H]C([2H])([2H])Nc1cc(Nc2cccn([C@H]3C[C@H](OC([2H])([2H])[2H])C3)c2=O)nc2c(C(=O)N[C@@H]3C[C@@H]3F)cnn12 [Compound 100]
20,< 10 nM,[2H]C([2H])([2H])Nc1cc(Nc2cccn([C@@H]3C[C@H]4CCO[C@H]43)c2=O)nn2c(C(=O)N[C@@H]3C[C@@H]3F)cnc12 [Compound 106]
21,10 to 100 nM,CNc1cc(Nc2cccn(CC3CCCO3)c2=O)nn2c(C(=O)N[C@@H]3C[C@@H]3F)cnc12 (stereo partly drawn) [Compound 107]
